# Laboratory results as given in publication PMC10874388, “Cyclic peptides discriminate BCL-2 and its clinical mutants from BCL-XL by engaging a single-residue discrepancy” (Nature Communications, 2024).
# “And” between values parts separate entries of the source, which are not always exact repeats. Equal entries are not always repeated.
# Tests used:
# Format in all cases: cell-based
# Daudi cells = assay: Cell viability assay (CellTiter-Glo), Daudi; settings: Daudi
# Experimental: (§1) The cell lines Jurkat (TIB-152), El4 (TIB-39), Daudi (ccl-213), RS4:11 (crl-1873), A549 (ccl-185), HepG2 (hb-8065) and PANC-1 (crl-1469) were purchased from ATCC (American Type Culture Collection), and MGC-803 (C6582) was purchased from Beyotime (https://www.beyotime.com/product/C6582.htm). […] Daudi and RS4:11 cells were cultured in RPMI-1640 medium (HyClone, SH30809.01) and 10% FBS (Gibco, 10099-141), whereas HepG2, MGC-803 and PANC-1 cells were cultured in MDEM (HyClone, SH30243.01). Cells were maintained at 37 °C under a humidified, 5% (v/v) CO2-containing atmosphere.
# (§2) Cell viability was measured using CellTiter-Glo® 2.0 Reagent (Promega, G9242). […] After different inhibitors were added into serum-free medium and cultured for 4 h (RS4:11 for 6 h), FBS were supplemented to 10% and then incubated totally for 24 h or 48 h. Finally, the IC50 values were calculated based on measurements using a microplate reader (Thermo, Varioskan LUX). Statistical analysis was performed using software GraphPad Prism 7.0.
# RS4:11 cells = assay: Cell viability assay (CellTiter-Glo), RS4:11; settings: single wells; for raw luminescence reading / inhibition rate: RS4:11
# Experimental: as §1, §2
# Jurkat cells = assay: Cell viability assay (CellTiter-Glo), Jurkat
# Experimental: as §1, §2
smiles,measurement,setting,value
CC1(C)CCC(c2ccc(Cl)cc2)=C(CN2CCN(c3ccc(C(=O)NS(=O)(=O)c4ccc(N[C@H](CCN5CCOCC5)CSc5ccccc5)c(S(=O)(=O)C(F)(F)F)c4)cc3)CC2)C1 [ABT263],"inhibition relative to 0 uM control, replicates",Daudi cells; 0.78125 uM,-13% and 6.58% and 11% and 14% and -14% and 9%
same,"raw viability signal, replicates",Daudi cells; 0.78125 uM,1671 and 1386 and 1318 and 1281 and 1698 and 1345
same,"inhibition relative to 0 uM control, replicates",Daudi cells; 1.5625 uM,12% and 28% and 13% and 5% and 2.67% and -0.427%
same,"raw viability signal, replicates",Daudi cells; 1.5625 uM,1303 and 1062 and 1294 and 1413 and 1444 and 1490
same,"inhibition relative to 0 uM control, replicates",Daudi cells; 3.125 uM,25% and 4% and 5% and 17% and 29% and 48%
same,"raw viability signal, replicates",Daudi cells; 3.125 uM,1117 and 1426 and 1406 and 1238 and 1059 and 765.3
same,"inhibition relative to 0 uM control, replicates",Daudi cells; 6.25 uM,51% and 31% and 24% and 23% and 20% and 40%
same,"raw viability signal, replicates",Daudi cells; 6.25 uM,729.7 and 1018 and 1129 and 1147 and 1185 and 883.7
same,"inhibition relative to 0 uM control, replicates",Daudi cells; 12.5 uM,38% and 61% and 46% and 56% and 44% and 48%
same,"raw viability signal, replicates",Daudi cells; 12.5 uM,920.2 and 574.4 and 802.0 and 653.5 and 827.6 and 767.5
same,"inhibition relative to 0 uM control, replicates",Daudi cells; 25 uM,71% and 70% and 63% and 61% (2×) and 82%
same,"raw viability signal, replicates",Daudi cells; 25 uM,436.2 and 441.9 and 545.0 and 582.0 and 581.4 and 260.8
same,inhibition at 0.000488281 µM,"RS4:11 cells; Homo sapiens, RS4-11, RS4:11, 0.488281 nM, read-out: inhibition rate",67%
same,inhibition at 0.000976562 µM,"RS4:11 cells; Homo sapiens, RS4-11, RS4:11, 0.976562 nM, read-out: inhibition rate",81%
same,inhibition at 0.00195312 µM,"RS4:11 cells; Homo sapiens, RS4-11, RS4:11, 1.95312 nM, read-out: inhibition rate",97%
same,inhibition at 0.00390625 µM,"RS4:11 cells; Homo sapiens, RS4-11, RS4:11, 3.90625 nM, read-out: inhibition rate",99%
same,inhibition at 0.0078125 µM,"RS4:11 cells; Homo sapiens, RS4-11, RS4:11, 7.8125 nM, read-out: inhibition rate",100%
same,inhibition at 0.015625 µM,"RS4:11 cells; Homo sapiens, RS4-11, RS4:11, 15.625 nM, read-out: inhibition rate",100%
same,inhibition at 0.03125 µM,"RS4:11 cells; Homo sapiens, RS4-11, RS4:11, 31.25 nM, read-out: inhibition rate",100%
same,inhibition at 0.0625 µM,"RS4:11 cells; Homo sapiens, RS4-11, RS4:11, 62.5 nM, read-out: inhibition rate",100%
same,inhibition at 0.125 µM,"RS4:11 cells; Homo sapiens, RS4-11, RS4:11, 125 nM, read-out: inhibition rate",100%
same,inhibition at 0.25 µM,"RS4:11 cells; Homo sapiens, RS4-11, RS4:11, 250 nM, read-out: inhibition rate",100%
same,inhibition at 0.5 µM,"RS4:11 cells; Homo sapiens, RS4-11, RS4:11, 500 nM, read-out: inhibition rate",100%
same,inhibition at 1 µM,"RS4:11 cells; Homo sapiens, RS4-11, RS4:11, 1000 nM, read-out: inhibition rate",100%
same,raw luminescence reading,RS4:11 cells; 0.244141 nM,319400 and 358600 and 385500 and 388700 and 346000 and 423800
same,raw luminescence reading,RS4:11 cells; 0.488281 nM,145900 and 162000 and 168900 and 156800 and 153400 and 152700
same,inhibition rate,"RS4:11 cells; 0.488281 nM, 0.000488281 µM",63% and 62% and 65% and 66%
same,raw luminescence reading,RS4:11 cells; 0.976562 nM,85360 and 92040 and 97200 and 90740 and 85390 and 85400
same,inhibition rate,"RS4:11 cells; 0.976562 nM, 0.000976562 µM",79% and 78% and 80%
same,raw luminescence reading,RS4:11 cells; 1.95312 nM,14920 and 16290 and 16450 and 15190 and 15570 and 13650
same,inhibition rate,"RS4:11 cells; 1.95312 nM, 0.00195312 µM",96%
same,raw luminescence reading,RS4:11 cells; 3.90625 nM,2969 and 3143 and 3110 and 2929 and 2545 and 2763
same,raw luminescence reading,RS4:11 cells; 7.8125 nM,1394 and 1471 and 1609 and 1459 and 1530 and 1294
same,raw luminescence reading,RS4:11 cells; 15.625 nM,649.5 and 693.0 and 701.2 and 740.3 and 855.6 and 501.0
same,raw luminescence reading,RS4:11 cells; 31.25 nM,598.7 and 870.6 and 1121 and 921.5 and 938.2 and 1010
same,raw luminescence reading,RS4:11 cells; 62.5 nM,361.9 and 494.9 and 587.5 and 446.2 and 364.9 and 488.9
same,raw luminescence reading,RS4:11 cells; 125 nM,503.8 and 401.2 and 517.1 and 644.2 and 454.2 and 588.4
same,raw luminescence reading,RS4:11 cells; 250 nM,1061 and 1147 and 1486 and 1266 and 1158 and 1293
same,raw luminescence reading,RS4:11 cells; 500 nM,507.0 and 488.7 and 440.9 and 484.8 and 485.1 and 504.0
same,raw luminescence reading,RS4:11 cells; 1000 nM,274.1 and 376.6 and 535.0 and 446.7 and 313.0 and 467.2
same,"inhibition relative to 0 uM control, replicates",Jurkat cells; 0.375 uM,36% and 32% (2×) and 29% and 31%
same,"raw viability signal, replicates",Jurkat cells; 0.375 uM,1239000 and 1266000 and 1356000 and 1351000 and 1403000 and 1379000
same,"inhibition relative to 0 uM control, replicates",Jurkat cells; 0.75 uM,33% and 36% and 41%
same,"raw viability signal, replicates",Jurkat cells; 0.75 uM,1132000 and 1330000 and 1241000 and 1225000 and 1265000 and 1179000
same,"inhibition relative to 0 uM control, replicates",Jurkat cells; 1.5 uM,44% and 41% and 40% and 37% and 34%
same,"raw viability signal, replicates",Jurkat cells; 1.5 uM,1078000 and 1124000 and 1172000 and 1189000 and 1263000 and 1304000
same,"inhibition relative to 0 uM control, replicates",Jurkat cells; 3 uM,44% and 39% and 40%
same,"raw viability signal, replicates",Jurkat cells; 3 uM,1152000 and 1105000 and 1149000 and 1214000 and 1192000 and 1143000
same,"inhibition relative to 0 uM control, replicates",Jurkat cells; 6 uM,47% and 44% and 41%
same,"raw viability signal, replicates",Jurkat cells; 6 uM,1071000 and 1059000 and 1122000 and 1132000 and 1181000 and 1149000
same,"inhibition relative to 0 uM control, replicates",Jurkat cells; 12 uM,60% and 56% and 54% and 53%
same,"raw viability signal, replicates",Jurkat cells; 12 uM,855500 and 799300 and 877600 and 917700 and 934900 and 865100
same,inhibition at 0.375 µM,"Jurkat cells; Homo sapiens, 0.375 uM, read-out: inhibition relative to 0 uM control, replicates",38%
same,inhibition at 0.75 µM,"Jurkat cells; Homo sapiens, 0.75 uM, read-out: inhibition relative to 0 uM control, replicates",43%
same,inhibition at 1.5 µM,"Jurkat cells; Homo sapiens, 1.5 uM, read-out: inhibition relative to 0 uM control, replicates",46%
same,inhibition at 3 µM,"Jurkat cells; Homo sapiens, 3 uM, read-out: inhibition relative to 0 uM control, replicates",42%
same,inhibition at 6 µM,"Jurkat cells; Homo sapiens, 6 uM, read-out: inhibition relative to 0 uM control, replicates",46%
same,inhibition at 12 µM,"Jurkat cells; Homo sapiens, 12 uM, read-out: inhibition relative to 0 uM control, replicates",57%
